Data taken from patent publication US20100291592A1, “NOVEL MARKER FOR SENSITIVITY AGAINST SULFONAMIDE COMPOUND” (priority 2006, published 2010).

Tests used:
EGFR1 [1] = experiment: EGFR1 expression level in cultured A549 (flow cytometry); type: cell-based, human; details: for EGFR1 expression level (% of control) A549: two days of culture, flow cytometry
Procedure: PC9 or A549 was suspended in RPMI1640 (containing 10% FBS) to 1×10^5 cells/ml. Then, 1 ml each of these suspensions was placed into each well of a 6-well plate and cultured in a 5% carbon dioxide incubator at 37° C. On the following day, 1 ml each of E7820 culture dilutions at respective concentrations (0-20 μM) was added to the cells in each well for further culture. After two days of culture, the cells were collected with trypsin-EDTA according to a routine procedure, which were suspended in PBS containing 0.5% BSA. Subsequently, an anti-EGFR1 antibody (BD Biosciences) was added to these suspensions and incubated at 4° C. for 30 minutes. Centrifugation and washing with PBS were carried out according to routine procedures to remove an excessive amount of the antibody. Then, an RPE-labeled anti-mouse IgG antibody was added to these suspensions and incubated at 4° C. for 30 minutes. Centrifugation and washing with PBS were carried out according to routine procedures to remove an excessive amount of the antibody. Finally, the EGFR1 expression level in PC9 and A549 were determined with FACSCalibur (Japan Becton, Dickinson and Company).

[2] = test system: human non-small cell lung cancer cell line (PC9); experiment: Anti-tumor effect on subcutaneous transplant model of PC9; type: in vivo, nude mouse; details: PC9 subcutaneous transplant, 50, 100 or 200 mg/kg orally twice a day for 14 days
Procedure: Human non-small-cell lung cancer cell line PC9 (obtained from Immuno-Biological laboratories Co., Ltd.), human non-small-cell lung cancer cell line A549 (obtained from Dainippon Pharmaceutical), human colon cancer cell line WiDr (obtained from Dainippon Pharmaceutical) and human colon cancer cell line HCT116 (obtained from ATCC) were cultured in RPMI1640 (containing 10% FBS) in a 5% carbon dioxide incubator at 37° C. to about 80% confluence, and the cells were collected with trypsin-EDTA. Using a phosphate buffer for PC9, WiDr and HCT116 and a 50% matrigel-containing phosphate buffer for A549, 5×10^7 cells/mL suspensions were prepared, respectively. Then, 0.1 mL each of the resulting cell suspensions was subcutaneously transplanted to the side of a nude mouse.
For PC9, 8 days after the transplantation, E7820 was orally administered for 50 mg/kg, 100 mg/kg or 200 mg/kg twice a day for 14 days. For A549, 24 days after the transplantation, E7820 was orally administered for 50 mg/kg or 200 mg/kg twice a day for 7 days. For WiDr, 11 days after the transplantation, E7820 was orally administered for 50 mg/kg, 100 mg/kg or 200 mg/kg twice a day for 14 days. […]
The major and minor axes of tumors were measured with Digimatic caliper (Mitsutoyo), and tumor volumes and relative tumor volumes were calculated according to the following formulae. […]

EGFR1 [3] = experiment: EGFR1 expression level in WiDr subcutaneous transplant model (western blotting); type: in vivo, nude mouse; details: for EGFR1 expression level (% of control) WiDr: WiDr tumor in nude mouse
Procedure: HCT116 or WiDr was cultured in RPMI1640 (containing 10% FBS) in a 5% carbon dioxide incubator to about 80% confluence. The cells were collected with trypsin-EDTA according to a routine procedure and 5×10^7 cells/mL suspensions were prepared with a phosphate buffer. Then, 0.1 mL each of the resulting suspension was subcutaneously transplanted to the side of a nude mouse.
For HCT116, 23 days after the transplantation, E7820 was orally administered for 12.5 mg/kg, 50 mg/kg or 200 mg/kg twice a day for 3 days. On the other hand, for WiDr, 18 days after the transplantation, E7820 was orally administered for 50 mg/kg or 200 mg/kg twice a day for 7 days. Four days after the start of administration for HCT116 and 8 days after the start of administration for WiDr, tumors were removed to prepare tumor cell lysates with various protease inhibitors and a cell lysis solution containing 10% glycerol and 1% Triton X-100 in ice. For each tumor cell lysate, an equal amount of protein was fractionated by SDS-PAGE and transferred onto a nitrocellulose membrane (Hybond ECL, Amersham Biosciences). Then, western blotting was performed by using an anti-EGFR1 antibody (Santa Cruz Biotechnology) and horse radish peroxidase-labeled anti-mouse IgG antibody (secondary antibody) (Cell Signaling) according to a routine procedure.
Detection and quantification of each band were carried out as follows. First, each band was forced to chemically develop a color with Chemiluminescent Substrate (PIERCE), which was then captured as a digital image with Image Master VDS-CL (Amersham Pharmacia Biotech, Tokyo). The digital images were saved as TIF files and numerically converted with Image Master total Lab (version 1.00, Amersham Pharmacia Biotech, Tokyo).

EGFR1 [4] = experiment: EGFR1 expression level in PC9 subcutaneous transplant model (immunohistochemical staining); type: in vivo; details: PC9 tumors in nude mice, 25, 50, 100 or 200 mg/kg orally twice a day for 7 days, versus unadministered group
Procedure: PC9 was cultured in RPMI1640 (containing 10% FBS) in a 5% carbon dioxide incubator at 37° C. The cultured human tumor cells (PC9) (8×10^6 cells/mouse) were subcutaneously transplanted into nude mice (KSN mice from SLC). Once proliferation of the tumors transplanted into the mice was observed, E7820 was orally administered to the mice for 0 mg/kg (unadministered), 25 mg/kg, 50 mg/kg, 100 mg/kg or 200 mg/kg twice a day for 7 days. Following 7 days of administration, tumor tissues were removed from the mice, fixed with formalin and embedded in paraffin. Subsequently, the paraffin-embedded tumor tissues were sliced into a thickness of 6 μm, placed on glass slides and deparaffinized with xylene/ethanol. Then, these sections were treated with […] (Roche), and subjected to immunostaining according to the protocol of Simple Stain kit: mouse MAX-PO (M) (NICHIREI) using an anti-EGFR antibody (DakoCytomation). Referring to FIG. 5, (a) to (f) show stain with control IgG (negative control), E7820-unadministered group, E7820-administered group (25 mg/kg), E7820-administered group (50 mg/kg), E7820-administered group (100 mg/kg) and E7820-administered group (200 mg/kg), respectively. Each panel was enlarged twenty times. […] This proves that E7820 also exerts an anti-tumor effect at tissue level by decreasing the EGFR1 expression level. […]

Cc1ccc(NS(=O)(=O)c2cccc(C#N)c2)c2[nH]cc(C#N)c12 [E7820, N-(3-cyano-4-methyl-1H-indole-7-yl)-3-cyanobenzenesulfonamide]
EGFR1 expression level (% of control) A549 (EGFR1 [1]; A549, E7820 0.01 μM): 93 % of control | EGFR1 expression level (% of control) A549 (EGFR1 [1]; A549, E7820 0.03 μM): 97 % of control | EGFR1 expression level (% of control) A549 (EGFR1 [1]; A549, E7820 0.1 μM): 95 % of control | EGFR1 expression level (% of control) A549 (EGFR1 [1]; A549, E7820 0.3 μM): 91 % of control | EGFR1 expression level (% of control) A549 (EGFR1 [1]; A549, E7820 1 μM): 80 % of control | EGFR1 expression level (% of control) A549 (EGFR1 [1]; A549, E7820 3 μM): 64 % of control | EGFR1 expression level (% of control) A549 (EGFR1 [1]; A549, E7820 10 μM): 73 % of control | Effect on EGFR1 expression level (in words) (EGFR1 [1]; cultured A549, flow cytometry): slightly decreased the EGFR1 expression level | Anti-tumor effect (relative tumor volume) [2]: stronger anti-tumor effects | Effect on EGFR1 expression level (in words) (EGFR1 [3]; WiDr transplanted tumors): did not change the EGFR1 expression level | EGFR1 expression level (% of control) WiDr (EGFR1 [3]; 50 mg/kg orally twice a day for 7 days): 117 % of control | EGFR1 expression level (% of control) WiDr (EGFR1 [3]; 200 mg/kg orally twice a day for 7 days): 121 % of control | Effect on EGFR1 expression level (immunohistochemical staining, in words) (EGFR1 [4]): decrease in the EGFR1 expression level was significant
